Measurements from PubChem BioAssay AID489024 (Sanford-Burnham Center for Chemical Genomics, 2010).
pEC50: −log10 of the molar value. Calls of active or inactive are those of the source.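 How the source made its calls: active means compounds whose mean EC50, the dose giving half the maximal reporter activation, is at or below a set limit; inactive means the rest.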

target: CHO-CHOP luciferase reporter, UPR activation, luminescence; test: CHOP reporter induction, apoptotic UPR branch – CHO-CHOP cells, luciferase luminescence, confirmation (AID 489024);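 further: compounds added alone to reporter cells with no tunicamycin stress co-treatment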

`CCOC(=O)c1c(CSC(=N)N)n(-c2ccc(C)cc2)c2cc(Br)c(OC(C)=O)cc12` was tested, and the EC50 was > 80 µM (inactive).
`CC1CCCCC1N1CN=C(Nc2nc3ccccc3s2)NC1` (stereo unspecified) was tested, and the EC50 was “inactive”.
With `S=C1SCN(Cc2ccccn2)CN1Cc1ccco1` the EC50 was > 80 µM (inactive).
For `CCOC(=O)c1sc(NC(=S)NC(=O)c2ccccc2)c(C(=O)OCC)c1C`, the EC50 was > 80 µM (inactive).
In the case of `CCc1nnc(NC(=O)c2nc(S(=O)(=O)Cc3ccc(C)cc3)ncc2Cl)s1`, the EC50 was > 80 µM (inactive).
In the case of `O=[N+]([O-])c1ccc(Sc2nnnn2-c2ccccc2)nc1`, the EC50 was > 80 µM (inactive).
In the case of `N#Cc1ccc(N/N=C/c2cn(-c3ccccc3)nc2-c2ccccc2)c([N+](=O)[O-])c1`, the EC50 was > 80 µM (inactive).
For `Oc1ccc(/C=N/N2CCCCC2)cc1O`, the EC50 was “inactive”.
For `O=C(CCN1C(=O)/C(=C\c2ccccc2F)SC1=S)N1CCCCC1`, the EC50 was > 80 µM (inactive).
`Cc1ccc(Cc2cnc(NC(=O)/C(C#N)=C/c3ccc(-c4ccc([N+](=O)[O-])cc4)o3)s2)cc1` was tested, and the EC50 was “inactive”.
For `CC1CCC/C=C/C(=O)c2c(O)cc(O)cc2CC(=O)O1` (stereo unspecified), the EC50 was > 80 µM (inactive).
In the case of `Cc1ccc(C(=O)Oc2ccc(Cl)c3cccnc23)cc1[N+](=O)[O-]`, the EC50 was “inactive”.
For `CCOC(=O)N1CCN(S(=O)(=O)c2ccc(C(=O)Nc3nc4c(s3)CC(C)CC4)cc2)CC1` (stereo unspecified), the EC50 was > 80 µM (inactive).
In the case of `COC(=O)c1cc(=O)n(Cc2ccc3c(c2)OCO3)c(=Nc2ccc(F)c(Cl)c2)s1`, the EC50 was > 80 µM (inactive).
With `c1ccc(-c2nc(N3CCCCCC3)c3ccccc3n2)nc1` the EC50 was “inactive”.
For `Oc1ccc(/C=N/N(c2ccccc2)c2ccccc2)cc1O`, the EC50 was “inactive”.
`Cc1cc(C)n(-c2nc(NC(C)(C)C)nc(NC(C)(C)C)n2)n1` was tested, and the EC50 was > 80 µM (inactive).
With `O=C(CCl)Nc1cccc(CP(=O)(c2ccccc2)c2ccccc2)c1` the EC50 was > 80 µM (inactive).
For `CCOC(=O)/C(=C\c1ccc(Cl)cc1)c1nc2sc(C)c(C)c2c(=O)[nH]1`, the EC50 was > 80 µM (inactive).
With `COc1ccc(-c2ccc(-c3nc4c(c(=O)[nH]c(=O)n4Cc4ccccc4)n3C)o2)c([N+](=O)[O-])c1` the EC50 was > 80 µM (inactive).
With `NC(N)=N/N=C/c1ccc(N(c2ccccc2)c2ccccc2)cc1` the EC50 was > 80 µM (inactive).
`CCOC(=O)N1CCN(Cc2cc(Cl)c3cccnc3c2O)CC1` was tested, and the EC50 was “inactive”.
For `CCCCNC1C(CC)C(CCC)C(C#N)(C#N)C1(C#N)C#N` (stereo unspecified), the EC50 was > 80 µM (inactive).
With `O=C(O)CC1CCC(=C(Cl)Cl)C1` (stereo unspecified) the EC50 was > 80 µM (inactive).
With `CC(=O)/C(=C/c1ccccc1)C(=O)Nc1ccccc1C` the EC50 was “inactive”.
For `CCc1ccccc1NC(=S)N=Nc1c(O)n(C)c2ccc(S(=O)(=O)N3CCOCC3)cc12`, the EC50 was > 80 µM (inactive).
For `COc1ccc(C(c2c(C)[nH]n(C(N)=S)c2=O)C(C#N)C#N)cc1` (stereo unspecified), the EC50 was “inactive”.
In the case of `Cc1ccc(S/C=C\C(=O)c2ccccc2)cc1`, the EC50 was > 80 µM (inactive).
With `Nc1nc(CC(=O)CSc2ccc(Cl)cc2)nc(Nc2ccc(F)cc2)n1` the EC50 was “inactive”.

Point of comparison: `Cc1ccc(C)c(C(=O)Cn2ncc(Cl)c(Cl)c2=O)c1`, pEC50 4.97. Against it:
- O=C(/C(=N/N=C/c1ccc(O)c(O)c1)c1ccccc1)c1ccccc1 — within 0.2 log units, 5.10
- COc1ccc(C(=O)/C=C2/C(=O)Nc3ccccc32)c(OC)c1 — within 0.2 log units, 5.07
- Cc1cc(C(=O)CCl)c(C)n1CC1COc2ccccc2O1 (stereo unspecified) — within 0.2 log units, 5.09
- S=C1SCN(CCN2CCOCC2)CN1Cc1ccccc1 — the same, 4.97
- COc1cc(/C=C/C(=O)c2ccc3c(c2)OCCO3)cc(Br)c1OCC(=O)N(C)C — within 0.2 log units, 5.15
- O=C(Nc1ccc(Cc2ccncc2)cc1)c1ccc([N+](=O)[O-])o1 — 0.84 log units higher, 5.81
- O=C(Oc1c(CN2CCOCC2)cc(Cl)c2cccnc12)c1ccccc1F — 0.23 log units lower, 4.74
- O=C1CC(c2cccc(Cl)c2)CC(O)=C1C=Nc1ccccc1 (stereo unspecified) — within 0.2 log units, 4.79
- O=C(CCC(=O)Nc1ccc(Cl)cc1Cl)N/N=C/c1ccc([N+](=O)[O-])o1 — within 0.2 log units, 4.89
- CCOC(=O)/C=c1\s/c(=C\c2ccc3cc(OC)ccc3c2)c(=O)n1CC(=O)NCC1CCCO1 (stereo unspecified) — the same, 4.97
- Oc1c(N=Nc2ccccn2)ccc2ccccc12 — 0.22 log units higher, 5.19
- O=C(C#Cc1ccccc1)c1cccc([N+](=O)[O-])c1 — within 0.2 log units, 5.13
- CCc1ccc(-n2c(SCC(=O)c3ccc4c(c3)NC(=O)CO4)nc3ccccc3c2=O)cc1 — within 0.2 log units, 4.89
- COc1cc(/C=C2\COC/C(=C\c3ccc(O)c(OC)c3)C2=O)ccc1O — 0.23 log units higher, 5.20
- C/C(=N\NC(=O)C(c1ccccc1)c1ccccc1)c1ccccn1 — within 0.2 log units, 4.80
- Cc1noc2ncnc(Sc3ccc(Cl)cc3)c12 — within 0.2 log units, 5.15
- CN(C(=O)CSc1cc(C(=O)c2nccn2C)c2ccccc2n1)c1ccccc1 — within 0.2 log units, 5.10
- O=C(Oc1oc(-c2ccco2)nc1C=Nc1ccc(Cl)cc1)c1ccco1 — within 0.2 log units, 5.05
- CCOc1ccc(-n2c(C)cc(C(=O)CCl)c2C)cc1 — within 0.2 log units, 5.16
- O=C(CCN1C(=O)C2C3C=CC(C4CC34)C2C1=O)Oc1cccc2cccnc12 (stereo unspecified) — within 0.2 log units, 4.95
- CC1=C(/C=C/C(C)=C/C=C/C(C)=C/C(=O)Nc2ccc(O)cc2)C(C)(C)CCC1 — within 0.2 log units, 4.84
- O=C1NC(=O)N(CCc2ccc(F)cc2)C(=O)/C1=C/C=C/c1ccccc1 — 0.35 log units higher, 5.32
- O=[N+]([O-])c1ccc(N/N=C/c2cccc(O)c2O)c(S(=O)(=O)N2CCOCC2)c1 — 0.22 log units higher, 5.19
- CCCN(CCC)C(=O)c1cc([N+](=O)[O-])cc2c1-c1ccc([N+](=O)[O-])cc1C2=C(C#N)C#N — within 0.2 log units, 4.88
- Cc1ccc(NC(=O)Cn2ncc(Cl)c(Cl)c2=O)cc1S(=O)(=O)N1CCCCC1 — 0.22 log units higher, 5.19
- CC(C)(C)C(=O)NC(=S)NNC(=O)c1ccc(-c2ccccc2)cc1 — within 0.2 log units, 4.89
- COc1ccc(C(=O)N/N=C(\C)c2ccccn2)cc1OC — 0.58 log units higher, 5.55
- CCOC(=O)c1cc(-c2ccc(/C=C3/C(=O)N(c4ccc(C(=O)O)cc4)N=C3C)o2)ccc1Cl — the same, 4.97
- CCOc1ccccc1N=Cc1c(O)c2ccccc2oc1=O — within 0.2 log units, 5.10
- FC(F)(F)c1nnc2c(Sc3ccccc3)nc3ccc(Cl)cc3n12 — 0.43 log units higher, 5.40
- Oc1ccc(-c2csc(Nc3ccccn3)n2)cc1O — 0.46 log units higher, 5.43
- COc1ccc(-c2cc3ccccc3oc2=O)cc1NC(=S)NC(=O)c1ccc2c(c1)OCCO2 — within 0.2 log units, 4.83
- O=C(/C(=C/c1ccc(Cl)cc1)c1nc2ccccc2[nH]1)c1cccs1 — 0.37 log units higher, 5.34
- CC(C)N1C(=O)/C(=C/C=C/c2ccco2)C(=O)N(Cc2ccco2)C1=O — within 0.2 log units, 5.07
- COc1ccc(-n2c(C)cc(C(=O)CCl)c2C)cc1 — within 0.2 log units, 5.15
- O=C(/C(=C/c1ccc(Cl)cc1)c1nc2ccccc2[nH]1)c1ccccc1 — 0.21 log units higher, 5.18
- COc1cccc2sc(N3CCN(c4nc5ccccc5s4)CC3)nc12 — within 0.2 log units, 4.86
- CC1=NOC(=O)/C1=C\c1ccc(-c2ccc(Cl)cc2Cl)o1 — within 0.2 log units, 4.87
- Oc1ccc2ccccc2c1N=Nc1ccccn1 — within 0.2 log units, 5.07
- C=CCn1nc([N+](=O)[O-])nc1Sc1cccc2cccnc12 — 0.21 log units higher, 5.18
- Cn1c(-c2cccc(OCc3ccccc3)c2)nc2c1c(=O)[nH]c(=O)n2Cc1ccccc1 — within 0.2 log units, 4.86
- CCOc1ccc2c(c1)C(=NNC(=O)c1ccncc1)c1cc(OCC)ccc1-2 — within 0.2 log units, 5.06
- COc1ccccc1/C=N\Nc1cc(C)nc(-n2nc(C)cc2C)n1 — within 0.2 log units, 4.86
- CCN(CC)S(=O)(=O)c1cc(NC(=O)Cn2ncc(Cl)c(Cl)c2=O)ccc1C — within 0.2 log units, 5.10
- CCOC(=O)c1cnc(-n2nc(C)cc2C)nc1Nc1ccc(N(C)C)cc1 — within 0.2 log units, 4.78
- Oc1c(C(Nc2ccccn2)c2ccccn2)ccc2cccnc12 (stereo unspecified) — within 0.2 log units, 4.91
- CN=c1scc(-c2ccco2)n1/N=C/c1ccc(O)c(O)c1 — 0.94 log units higher, 5.91
- O=C(/C=C/c1ccco1)NC(=S)Nc1ccc(O)c(-c2nc3ccccc3s2)c1 — within 0.2 log units, 4.93
- Cc1cc(C)c(C(CC(=O)c2cccs2)C(C#N)C#N)c(C)c1 (stereo unspecified) — within 0.2 log units, 4.85
- CCOC(=O)c1cnc(Nc2nc3ccccc3o2)nc1CSC(=S)N1CCCCC1 — 0.92 log units higher, 5.89
- CCc1ccc2c(c1)C1(NN=C(c3ccccc3)S1)C(=O)N2 (stereo unspecified) — 0.50 log units higher, 5.47
- FC(F)(F)c1nnc2c(Sc3ccc(Cl)cc3)nc3ccccc3n12 — 0.42 log units higher, 5.39
- CCOc1ccccc1-n1c(SCC(=O)Nc2ccc(CC)cc2)nc2n[nH]c(C)c2c1=N — within 0.2 log units, 5.14
- Cc1cc(C(=O)Cn2ncc(Cl)c(Cl)c2=O)c(C)n1CC(F)(F)F — 0.41 log units higher, 5.38
- COc1ccc(CC2=CC(=O)c3ccccc3C2=O)cc1 — within 0.2 log units, 4.91
- COc1ccc2c(c1)CCc1c(C(=O)Nc3cc(C)n(Cc4ccc(Cl)cc4)n3)noc1-2 — within 0.2 log units, 4.85
- O=C1NC(=O)N(c2ccccc2)C(=O)/C1=C\C=C\c1ccccc1 — 0.38 log units higher, 5.35
- COc1cccc2sc(Nc3nnc(-c4cccs4)o3)nc12 — 0.20 log units higher, 5.17
- Cc1ccc(C[n+]2c(-c3ccc(C)cc3)cc(-c3ccc(C)cc3)cc2-c2ccc(C)cc2)cc1 — 0.36 log units higher, 5.33
- Cc1cc(C(=O)CCl)c(C)n1-c1cccc([N+](=O)[O-])c1 — within 0.2 log units, 5.06
- COc1cc(NS(=O)(=O)c2ccc3ccccc3c2)c2ncccc2c1 — within 0.2 log units, 5.12
- COc1ccc(CNC[C@@H](CCCCN(C)Cc2ccc(OC)cc2)N2C[C@H](c3ccccc3)N(CCc3ccc(Cl)c(Cl)c3)C(=O)C2=O)cc1 — within 0.2 log units, 5.11
- COc1cc(/C=C2\CC(C(C)(C)C)C/C(=C\c3cc(OC)c(OC)c(OC)c3)C2=O)cc(OC)c1OC (stereo unspecified) — 0.24 log units higher, 5.21
- O=C1/C(=C/c2ccccc2[N+](=O)[O-])COc2ccccc21 — 0.24 log units higher, 5.21
- CCOc1cc(/C=C2/C(=O)ON=C2C)ccc1OCc1ccccc1F — within 0.2 log units, 4.80
- COc1ccc2c(C(=O)CCl)c[nH]c2c1 — 0.23 log units higher, 5.20
- OCCNc1nc(Nc2ccc(Br)cc2)nc2ccccc12 — within 0.2 log units, 5.09
- CN(C)C(=S)N=Nc1[nH]c2ccccc2c1O — within 0.2 log units, 5.16
- CCCC[C@@H](C)C[C@@H](C)C(=O)N(C)[C@@H](CC(C)C)C(=O)N[C@H](C(=O)N(C)[C@H](C(=O)N1C[C@@H](O)C[C@H]1C(=O)N1C(=O)C=C[C@@H]1C)C(C)C)C(C)OC(C)=O (stereo partly specified) — within 0.2 log units, 4.98
- S=C1SCN(Cc2ccco2)CN1Cc1ccco1 — within 0.2 log units, 4.94
- CN(C)C(=O)CSc1cccc2cccnc12 — within 0.2 log units, 5.09
- CCOc1ccc(N2C(=O)CC(N(O)c3ccccc3)C2=O)cc1 (stereo unspecified) — within 0.2 log units, 5.02
- CC1=CC(C)(C)Nc2ccc(OC(=O)CN3C(=O)CCC3=O)cc21 — within 0.2 log units, 5.02
- COc1ccc(CCN2CCC(Nc3nc4ccccc4n3Cc3ccc(F)cc3)CC2)cc1 — within 0.2 log units, 5.01
- COC(=O)c1c(NC(=O)c2ccc([N+](=O)[O-])o2)sc2c1CCN(C(C)C)C2 — 0.78 log units higher, 5.75
- COc1cccc2sc(Nc3nc(-c4ccccn4)cs3)nc12 — 0.81 log units higher, 5.78
